Test results as given in article PMC8773721, “A Small Molecule–Drug Conjugate (SMDC) Consisting of a Modified Camptothecin Payload Linked to an αVß3 Binder for the Treatment of Multiple Cancer Types” (Cancers, 2022).
Where two headings read alike, the source gives them in different places. Marks after values point to notes of the source that are not given here.

How the values were obtained:
[1] = system: SW480 CRC xenograft model; test: SW480 xenograft antitumor efficacy; assay type: in vivo, mouse; conditions: for Treatment/Control Ratio: Day 24; for Response: PD (progressive disease) / Response: PR (partial response) / Response: SD (stable disease): Day 24, RECIST
Excerpt: In the SW480 efficacy study, immunocompromised female NMRI nu/nu mice (8–10 weeks, 18–21 g, Taconic M&B A/S) were inoculated subcutaneously with 3 × 10^6 SW480 cells suspended in 50% Matrigel®/50% medium. The mice were randomized into control and treatment groups (n = 8) when the SW480 tumors reached an average size of 25 mm^2.
Subcutaneous tumor growth was monitored by measuring tumor area (length × width) using a caliper. Animal body weight was monitored as an indicator of treatment-related toxicity. Measurement of tumor area and body weight was performed at least twice weekly. Individual animals were sacrificed when showing >20% body weight loss or when tumors reached a maximum area of ~200 mm^2 unless ulceration or other predefined humane endpoints were met. At study termination, the animals were sacrificed by cervical dislocation under CO2 anesthesia. T/C (treatment/control) ratios were calculated using the final mean tumor areas at study or control group termination. […] Progressive disease (PD) was defined as a greater than 20% increase in tumor size. Partial response (PR) was defined as a greater than 30% reduction in tumor size. Complete response (CR) was defined as an absence of any palpable tumor mass. No tumor growth or a slight reduction (<30%) or small increase (<20%) in tumor size was defined as stable disease (SD).

[2] = system: NCI-H69 SCLC xenograft model; test: NCI-H69 xenograft antitumor efficacy and tolerability; assay type: in vivo, mouse; conditions: for Treatment/Control Ratio / Response: PD (progressive disease) / Response: SD (stable disease): NCI-H69, Day 31; for Response: PD (progressive disease) / Response: SD (stable disease): RECIST
Procedure: Irinotecan, doxorubicin, topotecan, cisplatin, and 5-FU were diluted in 0.9% NaCl.
In the NCI-H69 efficacy study, immunocompromised female NMRI nu/nu mice (8–10 weeks, 18–21 g, Taconic M&B A/S) were inoculated s.c. with 3 × 10^6 NCI-H69 cells suspended in 50% Matrigel®/50% medium. The mice were randomized into control and treatment groups (n = 8) when the NCI-H69 tumors reached an average size of 25 mm^2.
(§3) Subcutaneous tumor growth was monitored by measuring tumor area (length × width) using a caliper. Animal body weight was monitored as an indicator of treatment-related toxicity. Measurement of tumor area and body weight was performed at least twice weekly. Individual animals were sacrificed when showing >20% body weight loss or when tumors reached a maximum area of ~200 mm^2 unless ulceration or other predefined humane endpoints were met. At study termination, the animals were sacrificed by cervical dislocation under CO2 anesthesia. T/C (treatment/control) ratios were calculated using the final mean tumor areas at study or control group termination. Treatment responses were defined on the last day of the vehicle group (Day 38 for 786-O, Day 86 for MX-1, Day 31 for NCI-H69, and Day 24 for SW480) using the RECIST criteria [59]. Progressive disease (PD) was defined as a greater than 20% increase in tumor size. Partial response (PR) was defined as a greater than 30% reduction in tumor size. Complete response (CR) was defined as an absence of any palpable tumor mass. No tumor growth or a slight reduction (<30%) or small increase (<20%) in tumor size was defined as stable disease (SD).

[3] = system: MX-1 TNBC xenograft model
Excerpt: In the MX-1 efficacy study, the in vivo-grown tumor fragments (2 mm × 2 mm × 2 mm) were implanted s.c. in immunocompromised female NMRI nu/nu mice (8–10 weeks, 18–21 g, Taconic M&B A/S). The mice were randomized into control and treatment groups (n = 8) when the MX-1 tumors reached an average size of 25 mm^2.
as §3

[4] = molecular target: T1, human P-gp-expressing LLC-PK1 cells (Homo sapiens, UniProt P08183); test: Flux assay in human P-gp-expressing LLC-PK1 (L-MDR1) cells; assay type: in vitro ADME; conditions: 2 μM, 2 h
T1 construct: Schinkel, Netherlands Cancer Institute; host or cells: LLC-PK1 porcine renal epithelial cells (L-MDR1)
T1 sequence (P08183 whole entry): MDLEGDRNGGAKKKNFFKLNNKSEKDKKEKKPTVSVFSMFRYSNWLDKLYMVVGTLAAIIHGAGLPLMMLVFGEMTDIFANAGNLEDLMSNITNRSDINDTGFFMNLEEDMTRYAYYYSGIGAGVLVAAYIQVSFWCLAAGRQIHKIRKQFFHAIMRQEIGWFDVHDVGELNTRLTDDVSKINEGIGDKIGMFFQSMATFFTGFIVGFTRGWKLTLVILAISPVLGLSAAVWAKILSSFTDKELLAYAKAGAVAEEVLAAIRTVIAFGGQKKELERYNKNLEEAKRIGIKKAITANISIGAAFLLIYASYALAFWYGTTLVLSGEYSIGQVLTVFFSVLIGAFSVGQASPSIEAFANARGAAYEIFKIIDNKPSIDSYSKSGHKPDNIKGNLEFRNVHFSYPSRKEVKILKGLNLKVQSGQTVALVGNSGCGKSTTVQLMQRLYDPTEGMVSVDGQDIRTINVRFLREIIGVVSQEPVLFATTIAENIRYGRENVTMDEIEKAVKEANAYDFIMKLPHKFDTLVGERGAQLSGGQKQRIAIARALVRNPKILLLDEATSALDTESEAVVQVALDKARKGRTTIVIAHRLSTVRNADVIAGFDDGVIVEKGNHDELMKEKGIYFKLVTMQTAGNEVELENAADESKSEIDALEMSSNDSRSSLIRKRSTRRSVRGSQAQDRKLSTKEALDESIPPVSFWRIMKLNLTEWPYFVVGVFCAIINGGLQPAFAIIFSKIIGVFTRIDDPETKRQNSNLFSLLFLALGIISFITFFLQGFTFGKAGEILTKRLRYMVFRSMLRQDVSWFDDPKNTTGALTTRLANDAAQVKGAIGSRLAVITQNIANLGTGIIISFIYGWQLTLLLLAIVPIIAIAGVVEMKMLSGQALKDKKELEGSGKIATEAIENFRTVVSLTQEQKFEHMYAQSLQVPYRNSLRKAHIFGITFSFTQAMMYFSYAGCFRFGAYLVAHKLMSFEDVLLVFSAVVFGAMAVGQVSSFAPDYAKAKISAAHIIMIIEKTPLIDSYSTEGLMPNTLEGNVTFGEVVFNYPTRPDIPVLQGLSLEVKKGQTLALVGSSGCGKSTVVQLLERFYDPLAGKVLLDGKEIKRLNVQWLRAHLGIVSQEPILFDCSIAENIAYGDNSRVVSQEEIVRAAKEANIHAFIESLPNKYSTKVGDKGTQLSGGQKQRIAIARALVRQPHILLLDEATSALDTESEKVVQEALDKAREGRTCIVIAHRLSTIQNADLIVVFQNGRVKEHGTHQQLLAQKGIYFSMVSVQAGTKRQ
Procedure: (§1) Before and after incubation for 2 h at 37 °C, samples were taken from both compartments and analyzed by LC-MS/MS. The apparent permeability coefficient (Papp) was calculated for both the apical to basolateral (A → B) and the basolateral to apical (B → A) direction as described by Schwab et al..

[5] = system: NCI-H1975 cells; test: Cytotoxicity (Alamar Blue), parental NCI-H1975; assay type: cell-based, human; conditions: 72 h, no elastase
Procedure: (§2) Cells (6 × 10^3 cells/well) were plated in RPMI-1640 medium supplemented with 2% fetal calf serum (FCS) minimal media (MM) in 96-well plates and allowed to adhere at 37 °C/5% CO2 for 24 h. […] The cells were incubated at 37 °C/5% CO2 for 72 h. Then, Alamar Blue (#DAL1100, Invitrogen, Waltham, MA, USA) was added at a 1:1 ratio, the cells were incubated at 37 °C/5% CO2 for 4 h, and fluorescence (530 nm/590 nm) was measured with a VICTOR X2 Multilabel Reader (PerkinElmer, Waltham, MA, USA). The fluorescent signal was directly proportional to the number of viable cells. The half-maximal growth inhibition (IC50) was determined from the dose–response curves using the GraphPad Prism software.

[6] = system: Caco-2 cells; test: Flux assay in Caco-2 cells; assay type: in vitro ADME, human; conditions: 2 μM, 2 h
Procedure: as §1

[7] = system: NCI-H1975-BCRP cells; test: Cytotoxicity (Alamar Blue), NCI-H1975-BCRP; assay type: cell-based, human; conditions: 72 h, no elastase
Procedure: as §2

[8] = system: NCI-H1975-P-gp cells; test: Cytotoxicity (Alamar Blue), NCI-H1975-P-gp; assay type: cell-based, human; conditions: 72 h, no elastase
[9] = cisplatin 3 mg/kg, Q3Dx14, i.p.
[10] = irinotecan 15 mg/kg, 4 on/3 off, i.v.
[11] = irinotecan 30 mg/kg, Q2/3D, i.v.
[12] = MX-1, irinotecan 15 mg/kg, 4 on/3 off, i.v., Day 86, RECIST
[13] = MX-1, irinotecan 30 mg/kg, Q2/3Dx9, i.v., Day 86, RECIST
[14] = topotecan 0.5 mg/kg, 7 on/7 off, i.v.

O=c1[nH]cc(F)c(=O)[nH]1 [5-FU, 5-fluorouracil]
Treatment/Control Ratio ([1]; 5-FU 100 mg/kg, Q7D, i.p.): 0.54 ***
Response: PD (progressive disease) ([1]; 5-FU 100 mg/kg, Q7D, i.p.): PD: 8/8

N.N.[Cl][Pt][Cl] [Cisplatin]
Treatment/Control Ratio [2, 9]: 0.25 ***
Response: PD (progressive disease) [2, 9]: 7/8
Response: SD (stable disease) [2, 9]: 1/8
Relative body weight loss ([2]; NCI-H69 tumor-bearing mice, cisplatin 3 mg/kg, Q3Dx14, i.p.): > 10%
Animal deaths ([2]; NCI-H69 tumor-bearing mice, cisplatin 3 mg/kg, Q3Dx14, i.p., Day 46): one animal died

COc1cccc2c1C(=O)c1c(O)c3c(c(O)c1C2=O)C[C@@](O)(C(=O)CO)C[C@@H]3O[C@H]1C[C@H](N)[C@H](O)[C@H](C)O1 [Doxorubicin]
Treatment/Control Ratio ([3]; MX-1, doxorubicin 10 mg/kg, Q14Dx2, i.v., Day 86): 0.49 ***

CCc1c2c(nc3ccc(OC(=O)N4CCC(N5CCCCC5)CC4)cc13)-c1cc3c(c(=O)n1C2)COC(=O)[C@]3(O)CC [Irinotecan]
Tumor regrowth after treatment cessation ([1]; all VIP236- and irinotecan-treated mice): moderate tumor regrowth
Treatment/Control Ratio [1, 10]: 0.13 ***
Response: PR (partial response) [1, 10]: 5/8
Response: SD (stable disease) [1, 10]: 3/8
Treatment/Control Ratio [1, 11]: 0.15 ***
Response: PD (progressive disease) [1, 11]: 1/8
Response: PR (partial response) [1, 11]: 4/8
Response: SD (stable disease) [1, 11]: 3/8
Treatment/Control Ratio ([3]; MX-1, irinotecan 15 mg/kg, 4 on/3 off, i.v., Day 86): 0.002 ***
Response: CR (complete response) [3, 12]: CR: 4/8, PR: 4/8
Response: PR (partial response) [3, 12]: CR: 4/8, PR: 4/8
Tumor regrowth after treatment was stopped ([3]; MX-1, irinotecan 30 mg/kg, Q2/3Dx9, i.v.): clear tumor regrowth
Treatment/Control Ratio ([3]; MX-1, irinotecan 30 mg/kg, Q2/3Dx9, i.v., Day 86): 0.15 ***^, #
Response: PR (partial response) [3, 13]: 5/7
Response: SD (stable disease) [3, 13]: 2/7
Relative body weight loss ([3]; mouse, in vivo): > 10%

CCc1c2c(nc3ccc(O)cc13)-c1cc3c(c(=O)n1C2)COC(=O)[C@]3(O)CC [SN38]
Efflux Ratio [4]: 16
Permeability A → B [4]: 1 ×10⁻⁶ cm/s
IC50 [5]: 0.045 µM
Efflux Ratio [6]: 36
Permeability A → B [6]: 0.8 ×10⁻⁶ cm/s
IC50 [7]: 0.512 µM
IC50 [8]: 0.141 µM

CC[C@@]1(O)C(=O)OCc2c1cc1n(c2=O)Cc2cc3c(CN(C)C)c(O)ccc3nc2-1 [Topotecan]
Treatment/Control Ratio [2, 14]: 0.20 ***
Response: PD (progressive disease) [2, 14]: 7/8
Response: SD (stable disease) [2, 14]: 1/8
Relative body weight loss ([2]; NCI-H69 tumor-bearing mice, topotecan 0.5 mg/kg, 7 on/7 off, i.v.): > 10%
